# Source: ChEMBL document CHEMBL1130707, “Inhibition stereochemistry of hydroxamate inhibitors for thermolysin” (Bioorg Med Chem Lett, 1998)
# Target: T1, Thermolysin (Bacillus thermoproteolyticus, UniProt P00800)
# T1 sequence (P00800 whole entry): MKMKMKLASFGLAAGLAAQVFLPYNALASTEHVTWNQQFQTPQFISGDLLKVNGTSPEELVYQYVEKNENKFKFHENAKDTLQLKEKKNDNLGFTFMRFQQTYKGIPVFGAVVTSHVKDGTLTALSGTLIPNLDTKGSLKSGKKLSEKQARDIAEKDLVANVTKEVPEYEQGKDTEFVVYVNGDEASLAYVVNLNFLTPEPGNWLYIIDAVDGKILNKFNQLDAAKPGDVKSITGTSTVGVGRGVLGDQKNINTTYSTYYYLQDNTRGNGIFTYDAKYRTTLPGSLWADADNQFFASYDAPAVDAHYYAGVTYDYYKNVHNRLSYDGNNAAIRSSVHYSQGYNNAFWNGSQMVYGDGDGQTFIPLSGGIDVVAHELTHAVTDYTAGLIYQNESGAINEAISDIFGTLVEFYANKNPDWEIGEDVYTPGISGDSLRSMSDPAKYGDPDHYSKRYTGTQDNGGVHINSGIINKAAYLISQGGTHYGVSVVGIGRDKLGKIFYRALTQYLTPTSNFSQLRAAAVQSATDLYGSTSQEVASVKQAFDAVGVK
# Experiment: Inhibitory activity against thermolysin
row,Ki [µM],Compound
1,44,COC(=O)[C@@H](CC(C)C)N(O)C=O
2,22.5,COC(=O)[C@@H](CC(C)C)CN(O)C=O
3,3950,CNC(=O)[C@@H](Cc1ccccc1)CN(O)C(C)=O
4,1.66,CNC(=O)[C@@H](Cc1ccccc1)CN(O)C=O

# Second part, the molecule before the results:
row,Compound,Ki [µM]
1,CNC(=O)[C@H](Cc1ccccc1)CN(O)C=O,68.2
2,CCC(=O)N(O)C[C@H](Cc1ccccc1)C(=O)NC,7500

# Target: T1, Thermolysin
# Experiment: Inhibitory activity against thermolysin; No inhibitory activity was observed up to concentration of 20 mM
row,Compound,Ki
1,CCC(=O)N(O)C[C@@H](Cc1ccccc1)C(=O)NC,No inhibition
2,CNC(=O)[C@H](Cc1ccccc1)CN(O)C(C)=O,No inhibition
